This passage reports IC50 results from patent publication US7960422B2, “Pharmaceutically active compounds containing tetrazolyl and triazolyl rings” (AstraZeneca AB, priority 2007, dated 2011).

Molecules are shown by their SMILES.

This assay addresses T1, human mGluR5d (Homo sapiens, UniProt P41594).
T1 construct: expressed in transfected cells
Kind of assay: IP3 assay (phosphatidylinositol turnover, functional mGluR5 antagonism). Type of assay: cell-based. Particulars: GHEK cells stably expressing human mGluR5d; glutamate (80 μM) or DHPG (30 μM) as agonist. From the text: Biological Evaluation Functional Assessment of mGluR5 Antagonism in Cell Lines Expressing mGluR5D
The properties of the compounds of the invention can be analyzed using standard assays for pharmacological activity. Examples of glutamate receptor assays are well known in the art as described in for example Aramori et al., Neuron 8:757 (1992), Tanabe et al., Neuron 8:169 (1992), Miller et al., J. Neuroscience 15: 6103 (1995), Balazs, et al., J. Neurochemistry 69:151 (1997). The methodology described in these publications is incorporated herein by reference. Conveniently, the compounds of the invention can be studied by means of an assay (FLIPR) that measures the mobilization of intracellular calcium, [Ca^2+]i in cells expressing mGluR5 or another assay (IP3) that measures inositol phosphate turnover.
An additional functional assay for mGluR5d is described in WO97/05252 and is based on phosphatidylinositol turnover. Receptor activation stimulates phospholipase C activity and leads to increased formation of inositol 1,4,5,triphosphate (IP3).
GHEK stably expressing the human mGluR5d are seeded onto 24 well poly-L-lysine coated plates at 40×10^4 cells/well in media containing 1 μCi/well [3H] myo-inositol. Cells were incubated overnight (16 h), then washed three times and incubated for 1 h at 37° C. in HEPES buffered saline (146 mM NaCl, 4.2 mM KCl, 0.5 mM MgCl2, 0.1% glucose, 20 mM HEPES, pH 7.4) supplemented with 1 unit/ml glutamate pyruvate transaminase and 2 mM pyruvate. Cells are washed once in HEPES buffered saline and pre-incubated for 10 min in HEPES buffered saline containing 10 mM LiCl. Compounds are incubated in duplicate at 37° C. for 15 min, then either glutamate (80 μM) or DHPG (30 μM) is added and incubated for an additional 30 min. The reaction is terminated by the addition of 0.5 ml perchloric acid (5%) on ice, with incubation at 4° C. for at least 30 min. Samples are collected in 15 ml polyproplylene tubes and inositol phosphates are separated using ion-exchange resin (Dowex AG1-X8 formate form, 200-400 mesh, BIORAD) columns. Inositol phosphate separation was done by first eluting glycero phosphatidyl inositol with 8 ml 30 mM ammonium formate. Next, total inositol phosphates is eluted with 8 ml 700 mM ammonium formate/100 mM formic acid and collected in scintillation vials. This eluate is then mixed with 8 ml of scintillant and [3H] inositol incorporation is determined by scintillation counting. The dpm counts from the duplicate samples are plotted and IC50 determinations are generated using a linear least squares fitting program.

T1 sequence (P41594 21-942 isoform P41594-3 limits assumed): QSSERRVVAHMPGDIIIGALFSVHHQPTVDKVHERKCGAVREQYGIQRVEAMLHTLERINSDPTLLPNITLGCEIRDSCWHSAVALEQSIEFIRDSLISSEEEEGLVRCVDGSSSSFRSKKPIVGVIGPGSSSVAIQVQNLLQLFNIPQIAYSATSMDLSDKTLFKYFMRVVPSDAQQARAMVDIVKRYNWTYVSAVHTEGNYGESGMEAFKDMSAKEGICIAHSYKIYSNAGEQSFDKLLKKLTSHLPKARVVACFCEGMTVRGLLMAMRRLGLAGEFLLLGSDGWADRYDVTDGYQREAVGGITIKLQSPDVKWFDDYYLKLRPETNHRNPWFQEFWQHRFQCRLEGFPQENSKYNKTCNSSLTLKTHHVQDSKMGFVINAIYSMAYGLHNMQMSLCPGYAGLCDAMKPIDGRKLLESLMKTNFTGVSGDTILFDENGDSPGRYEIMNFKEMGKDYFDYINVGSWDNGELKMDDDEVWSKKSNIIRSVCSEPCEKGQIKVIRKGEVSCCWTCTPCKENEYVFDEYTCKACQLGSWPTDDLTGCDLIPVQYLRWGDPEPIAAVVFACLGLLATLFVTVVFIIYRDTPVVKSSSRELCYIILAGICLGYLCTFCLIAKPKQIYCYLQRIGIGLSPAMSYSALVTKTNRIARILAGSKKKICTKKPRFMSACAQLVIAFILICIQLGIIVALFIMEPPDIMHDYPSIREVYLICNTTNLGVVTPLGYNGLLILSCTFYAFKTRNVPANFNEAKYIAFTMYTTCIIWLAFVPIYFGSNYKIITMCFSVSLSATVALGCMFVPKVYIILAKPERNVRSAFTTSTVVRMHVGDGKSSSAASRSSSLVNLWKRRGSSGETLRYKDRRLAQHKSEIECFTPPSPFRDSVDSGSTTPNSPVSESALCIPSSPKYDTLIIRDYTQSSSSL

Turning to `Cc1cccc(-n2nnc([C@@H](C)Oc3nnc(-c4ncccn4)n3C)n2)c1` [Example 10.1, 2-(4-methyl-5-{(1R)-1-[2-(3-methylphenyl)-2H-tetrazol-5-yl]ethoxy}-4H-1,2,4-triazol-3-yl)pyrimidine], the IC50 amounted to 36 nM.

Take `Cc1cccc(-n2nnc([C@@H](C)Oc3nnc(-c4cncnc4)n3C)n2)c1` [Example 10.2, 5-(4-methyl-5-{(1R)-1-[2-(3-methylphenyl)-2H-tetrazol-5-yl]ethoxy}-4H-1,2,4-triazol-3-yl)pyrimidine]: the IC50 was found to be 25 nM.

`Cc1cccc(-n2nnc([C@@H](C)Oc3nnc(-c4cnc(C)cn4)n3C)n2)c1` [Example 10.3, 2-methyl-5-(4-methyl-5-{(1R)-1-[2-(3-methylphenyl)-2H-tetrazol-5-yl]ethoxy}-4H-1,2,4-triazol-3-yl)pyrazine] came in with an IC50 of 22 nM.

The compound `Cc1cccc(-n2nnc([C@@H](C)Oc3nnc(-c4ccnc(C)c4)n3C)n2)c1` [Example 10.4, 2-methyl-4-(4-methyl-5-{(1R)-1-[2-(3-methylphenyl)-2H-tetrazol-5-yl]ethoxy}-4H-1,2,4-triazol-3-yl)pyridine] had a half-inhibitory concentration (IC50) of 20 nM.

Compound `Cc1cccc(-n2nnc([C@@H](C)Oc3nnc(-c4cccnc4)n3C)n2)c1` [Example 10.5] came in with an IC50 of 23 nM.
